# Patent US6399568B1, “Cyclic tetrapeptide derivatives and medicinal use thereof” (Japan Energy Corporation, priority 1997, dated 2002)
# Non-standard residues stand in square brackets, D forms with d. Residues, ends and D or L forms follow the SMILES beside them. *: point of attachment. Asu = N[C@@H](CCCCCC(=O)O)C(=O)O; NHOH = ON*
# Assays:
# [1] = tested on: Meth A; assay: In vivo anti-cancer activity in mouse (solid tumor system)
# Method: (§1) Three mouse cancers Colon26, Meth A and B16 were used to evaluate in vivo anti-cancer activity of the cyclic tetrapeptide compounds according to the present invention in a solid tumor system. The cancer cells were cultured in a conventional manner, suspended in PBS and intradermally transplanted into a mouse ventral portion (10^5). The mouse used was CDF1, Balb/c or BDF1 (male, 7 weeks in age) for Colon 26, Meth A or B16, respectively. On day-4, 7 and 10 for Colon 26, or on day-7, 10, 13 and 16 for Meth A and B16 (day-0 being the day of cancer transplantation), a given amount of solution containing a predetermined amount of a compound to be tested was administered into the tail vein (10, 3 and 1 mg/kg; 2 ml/kg). In this example, the solution for administration used was PBS suspension (as neutralized with NaOH). On day-14 for Colon26 and on day-21 for Meth A and B16, the size of tumor (shorter and longer diameters) was measured. The tumor weight was estimated from the value obtained by calculation from the equation: ½×longer diameter×shorter diameter^2. Anti-tumor effects were based on the estimated tumor weight used as a measure and a tumor weight was estimated for a control group to which an equal amount of a drug-free solution was added; % inhibition was determined on the basis of the difference between the estimated tumor weights for the treated and control groups.
# [2] = tested on: Colon 26; assay: as above; settings: measured day-14, estimated from diameters
# Method: as §1
# [3] = tested on: B16; assay: as above; settings: measured day-21, estimated from diameters
# Method: as §1
# [4] = rat, in vivo, 10 mg/kg
# Method: Under anesthesia with Ketamine/Kylazine mixture, SD rats were administered with HDA-31 into the tail vein (10 mg/kg; 2 ml/kg). The drug was dispersed in PBS and neutralized with NaOH and the resulting suspension was used. After administration, blood was taken from the carotid artery at a given interval of time (using heparin as an anti-coagulant) and centrifuged to prepare plasma. HDA-31 in the plasma was extracted with MTBE (methyl-t-butyl-ether) and separated by reverse-phase HPLC and a peak area corresponding to HDA-31 was quantitatively determined with a mass spectrometer.
# [5] = tested on: MH134; assay: In vivo anti-cancer activity in mouse (ascites tumor system); settings: for Median Survival days (T/C %): MH134 ascites, C3H/HeN mouse
# Method: (§2) With respect to an ascites tumor system, in vivo anti-cancer activity of the cyclic tetrapeptide compounds according to the present invention was evaluated using cancer-carrying mouse. The cancer cells used were L1210, B16, Colon26and MH134. These cancer cells were cultured in a conventional manner and suspended in PBS, and 10^5 cells of L1210, or 10^6 cells of B16, Colon26 or MH134 were intraperitoneally transplanted into each mouse (100 μl/mouse). The mouse used was CDF1, BDF1, CDF1 or C3H/HeN (male, 7 weeks in age) for L1210, B16, Colon 26or MH134, respectively. Drug administration was started from the day next to the transplantation of cancer cells. For L1210, 0.5% carboxymethyl cellulose Na suspension and for other cancer cells, PBS solution (actually, as suspension neutralized with NaOH) were continuously administered everyday (100 μl/mouse). The period of administration was 4 days for L1210, 9 days for B16 and MH134, and 8 days for Colon26.
# (§3) After the administration period passed, the mice administered were bred and median survival days were calculated on the basis of the number of days from the transplantation of cancer cells to death. The percent ratio (T/C%) between the median survival days (C) for a control group to which an equal amount of a drug-free solution was administered and the median survival days (T) of the treated group administered with the drug was determined.
# [6] = tested on: Colon26; assay: as above; settings: for Median Survival days (T/C %): Colon26 ascites, CDF1 mouse
# Method: as §2, §3
# [7] = tested on: L1210; assay: as above; settings: for Median Survival days (T/C %): L1210 ascites, CDF1 mouse
# Method: as §2, §3
# [8] = tested on: B16; assay: as above; settings: for Median Survival days (T/C %): B16 ascites, BDF1 mouse
# Method: as §2, §3
# [9] = biological target: Mouse histone deacetylase; type: biochemical; settings: enzyme from FM3A cells; [3H]acetyl histone; 37° C. 10 minutes
# [10] = 0.015 mg/mouse everyday for 9 days
# [11] = 0.05 mg/mouse everyday for 9 days
# [12] = 0.15 mg/mouse everyday for 9 days
structure (smiles),measurement,setting,value
"CC[C@H](C)[C@@H]1NC(=O)[C@@H](Cc2ccc(OC)cc2)NC(=O)[C@H](CCCCCC(=O)NO)NC(=O)[C@H]2CCCN2C1=O [HDA-31, cyclo(-L-Asu(NHOH)-D-Tyr(Me)-L-Ile-D-Pro-)] (cyclo([Asu](NHOH)[dY](Me)I[dP]))",tumor weight,"[1]; 1 mg/kg tail vein on day-7, 10, 13 and 16, measured day-21, estimated from diameters",2100 ± 570 mg
same,tumor weight,"[1]; 3 mg/kg tail vein on day-7, 10, 13 and 16, measured day-21, estimated from diameters",1230 ± 500 mg
same,tumor weight,"[1]; 10 mg/kg tail vein on day-7, 10, 13 and 16, measured day-21, estimated from diameters",1470 ± 500 mg
same,tumor weight,"[2]; Colon 26, 1 mg/kg tail vein on day-4, 7 and 10",756 ± 25 mg
same,tumor weight,"[2]; Colon 26, 3 mg/kg tail vein on day-4, 7 and 10",677 ± 155 mg
same,tumor weight,"[2]; Colon 26, 10 mg/kg tail vein on day-4, 7 and 10",726 ± 123 mg
same,tumor weight,"[3]; B16, 1 mg/kg tail vein on day-7, 10, 13 and 16",258 ± 184 mg
same,tumor weight,"[3]; B16, 3 mg/kg tail vein on day-7, 10, 13 and 16",280 ± 152 mg
same,tumor weight,"[3]; B16, 10 mg/kg tail vein on day-7, 10, 13 and 16",120 ± 112 mg
same,concentration in blood (plasma) after intravenous administration,[4],concentrations in blood exceeding the stated effective concentrations were maintained over a few hours
same,life-saving effect,[5]; MH134 ascites tumor,no life-saving effect was observed
same,Median Survival days (T/C %),[5]; [10],95.8%
same,Median Survival days (T/C %),[5]; [11],85.4%
same,Median Survival days (T/C %),[5]; [12],91.7%
same,life-saving effect,[6]; Colon26 ascites tumor,no life-saving effect was observed
same,Median Survival days (T/C %),[6]; 0.015 mg/mouse everyday for 8 days,90.9%
same,Median Survival days (T/C %),[6]; 0.05 mg/mouse everyday for 8 days,86.4%
same,Median Survival days (T/C %),[6]; 0.15 mg/mouse everyday for 8 days,63.6%
same,life-saving effect,[7]; L1210 ascites tumor,obviously exhibited a life-saving effect
same,Median Survival days (T/C %),[7]; 0.015 mg/mouse everyday for 4 days,113%
same,Median Survival days (T/C %),[7]; 0.15 mg/mouse everyday for 4 days,125%
same,Median Survival days (T/C %),[7]; 1.5 mg/mouse everyday for 4 days,37.5%
same,life-saving effect,[8]; B16 ascites tumor,obviously exhibited a life-saving effect
same,Median Survival days (T/C %),[8]; [10],117%
same,Median Survival days (T/C %),[8]; [11],119%
same,Median Survival days (T/C %),[8]; [12],139%
same,IC50,[9],2.08 nM
